# In PMC8758724, “Molecular mechanism of agonism and inverse agonism in ghrelin receptor” (Nature Communications, 2022):
# “Also recorded” adds a separate entry of the source.
# Columns and labels:
# [1] = tested on: wild-type ghrelin receptor; experiment: IP1 accumulation, wild-type ghrelin receptor, HEK293 cells, 37 °C 2 h, Cisbio IP1 kit; assay type: cell-based, human; conditions: WT
# Protocol: Fig. 1 Overall structures of ghrelin receptors bound to inverse agonist and agonist. a Dose-dependent responses of endogenous agonist ghrelin, inverse agonist PF-05190457 and antagonist compound 21 containing 10 nM ghrelin peptide at wild-type ghrelin receptor measured by cellular IP1 accumulation assays. […] Data represent the mean ± SEM from n = 3 biologically independent experiments performed in triplicate. b View from within the plane of the membrane. The inverse agonist-bound ghrelin receptor is represented as a wheat cartoon, and PF-05190457 is shown as a marine blue sphere. Cryo-EM structure of the agonist ghrelin-bound ghrelin receptor-Gαo1-scFv16 complex. c Ghrelin peptides and receptors are shown as deep salmon spheres and aquamarine cartoons, respectively. The Go heterotrimer and scFv16 are shown in the gray cartoon. d View from the extracellular side of the membrane. […]
# IP accumulation was measured using Cisbio IP1 assay kit (Cisbio, 62IPAPEB), which has been previously described. […] IP1 was quantified using Synergy H1 microplate reader (BioTek) with excitation at 320 nm, emission at 620 nm, and 665 nm. The accumulation of IP1 was calculated according to a standard dose–response curve in GraphPad Prism 8 (GraphPad Software). […]
# ghrelin receptor mutants = experiment: IP1 accumulation, ghrelin receptor mutants, HEK293 cells, 37 °C 2 h (compound 21 containing 10 nM ghrelin); assay type: cell-based, human
# From the text: Fig. 2 The binding mode of PF-05190457 with the ghrelin receptor. a The detailed binding mode of PF-05190457 in the orthosteric pocket of the ghrelin receptor. The |Fo| − |Fc| omit map (contoured at 3.0 σ) for PF-05190457 (shown as marine blue sticks). […] The diazaspiro core is shown in pink, arm-1 is sky blue, and arm-2 is light green. The red solid lines indicate hydrogen bonds involved in interactions with the side chains of key residues. d–f Key residues of the ghrelin receptor (wheat sticks) involved in ligand binding in cavity III (d), cavity I (e), and cavity IV (f). The binding pocket is highly hydrophobic, and the particular polar network is shown as black dotted lines. g IP1 accumulation induced by the inverse agonist PF-05190457 and antagonist compound 21. Bars represent the difference in the calculated potency (pIC50) of the inverse agonist for mutations relative to the WT ghrelin receptor. Data are colored according to extent of effect. nd not detected, **P < 0.01, ***P < 0.001 (one-way analysis of variance (ANOVA) followed by Dunnett’s test, compared with the response of WT, P < 0.001, P < 0.001, P < 0.001, P > 0.999, nd, nd, P = 0.05, nd, P < 0.001, P < 0.001, nd, nd, nd, nd, nd, nd, P < 0.01, P = 0.264, P < 0.001, nd, P < 0.001, nd from left to right). Data represent the mean ± SEM from n = 3 biologically independent experiments performed in triplicate. […] The salt bridges between E124^3.33 and R283^6.55 as well as between R102^2.63 and Q120^3.29, are broken upon PF-05190457 binding.
# To measure the activity of inverse agonist PF-05190457 (Tocris, Cat. No. 6350), we carried out IP1 accumulation assays for ghrelin receptor independent of agonist. The agonist ghrelin and antagonist compound 21 were also performed as the control. The cDNA of ghrelin receptor subcloned into pcDNA3.1(+) expression vector with a HA signal sequence followed by a Flag tag at the N-terminus. Point mutations used in our study were generated by using Q5 site-Directed Mutagenesis kit (NEB). All the constructs were verified by sequencing. The constructs were expressed in HEK293 cells using PEI transfection reagent (YEASEN, 40815es03) according to the manufacturer’s instruction. Cells were harvested 48 h post transfection.
# IP accumulation was measured using Cisbio IP1 assay kit (Cisbio, 62IPAPEB), which has been previously described. In brief, the harvested cells were distributed in a low volume 96-well dish and stimulated with increased concentration of inverse agonist PF-05190457, agonist ghrelin peptide or antagonist compound 21 containing 10 nM ghrelin peptide at 37 °C for 2 h. After that, d2-labeled IP1 and cryptate-labeled anti-IP1 monoclonal antibody dissolved in Lysis Buffer were added to the wells. After 1 h incubation at room temperature. IP1 was quantified using Synergy H1 microplate reader (BioTek) with excitation at 320 nm, emission at 620 nm, and 665 nm. The accumulation of IP1 was calculated according to a standard dose–response curve in GraphPad Prism 8 (GraphPad Software). Data were represented as the mean ± SEM from three independent experiments and all experiments were repeated at least three times.
# Supplementary Fig. 6: IP1 accumulation assay.
# (a) Expression level of the ghrelin receptor mutants. Data represent the mean ± SEM from three independent experiments performed in triplicate. ns, not significant, **p < 0.01, ***p < 0.001 (one-way analysis of variance [ANOVA] followed by Dunnett’s test, compared with the response […]
# 0.001, p=0.996, p=0.008, p=0.999 from left to right). Data represent the mean ± SEM from n=3 biologically independent experiments performed in triplicate.
# (b) IP1 accumulation measurement induced by inverse agonist PF-05190457(left), agonist ghrelin (middle) and antagonist compound 21 (right). ns, not significant; nd, not detected; ***p < 0.001 […]
# < 0.001, nd, nd, nd, p=0.264, nd, nd from left to right). Data represent the mean ± SEM from […]
# ghrelin receptor [2] = conditions: cited from earlier work
# From the text: The ghrelin receptor is activated by endogenous ghrelin peptide and contains constitutive activity as ~50% of the maximal activity in the absence of ghrelin peptide.
# ghrelin receptor [3] = conditions: cited from earlier work; remark: listed apart in the source
# From the text: (50% activity independent of the endogenous ligand ghrelin). The ghrelin receptor exerts a wide range of physiological functions, including appetite regulation, alcohol consumption, adipocyte metabolism, and glucose homeostasis[11]–[14], due to its broad distribution and multiple signaling pathways through divergent G-protein coupling or β-arrestin recruitment. The endogenous agonist ghrelin is a 28-amino acid peptide secret ...
compound,measurement,setting,value
Cc1cc(-c2ccc3c(c2)CC[C@H]3N2CC3(CCN(C(=O)Cc4cn5cc(C)sc5n4)CC3)C2)ncn1 [PF-05190457],effect on constitutive (basal) activity of the ghrelin receptor,[1],functions as an inverse agonist to significantly reduce basal activity; also recorded: significantly reduced
same,"inverse agonism potency, effect of mutation",ghrelin receptor mutants; D99^2.60A,significantly reduced the potency of inverse agonism
same,"inverse agonism potency, effect of mutation",ghrelin receptor mutants; E124^3.33A,impaired the inverse agonism potency
same,"inverse agonism potency, effect of mutation",ghrelin receptor mutants; F119^3.28A,essential for the inverse agonism potency
same,"inverse agonistic activity, effect of mutation",ghrelin receptor mutants; F279^6.51A,significantly reduced the inverse agonistic activity; also recorded: significantly reduced the potency of inverse agonism
same,"inverse agonistic activity, effect of mutation",ghrelin receptor mutants; F312^7.42A,significantly reduced the inverse agonistic activity; also recorded: significantly reduced the potency of inverse agonism
same,"inverse agonism potency, effect of mutation",ghrelin receptor mutants; Q120^3.29A,essential for the inverse agonism potency
same,"inverse agonism potency, effect of mutation",ghrelin receptor mutants; R283^6.55A,impaired the inverse agonism potency
same,"inverse agonism potency, effect of mutation",ghrelin receptor mutants; S308^7.38A,decreased the inverse agonism potency
same,"inverse agonistic activity, effect of mutation",ghrelin receptor mutants; W276^6.48A,significantly reduced the inverse agonistic activity; also recorded: significantly reduced the potency of inverse agonism
Cc1nc2ccc(Oc3ccc(Br)cc3F)nc2c(=O)n1C[C@H]1CCCN(C(C)C)C1 [compound 21],effect on constitutive activity of the ghrelin receptor,ghrelin receptor [2],had no effect on the constitutive activity of the ghrelin receptor
same,"potency, effect of mutation",ghrelin receptor mutants; F279^6.51A,impaired the potency
same,"potency, effect of mutation",ghrelin receptor mutants; F312^7.42A,impaired the potency
same,"potency, effect of mutation",ghrelin receptor mutants; W276^6.48A,impaired the potency
"unacylated form of ghrelin: unacylated form of ghrelin (GSSFLSPEHQRVQQRKESKKPPAKLQPR; Ghrelin-28 unacylated; UniProt Q9UBU3 24-51, looked up)",activation of the ghrelin receptor,ghrelin receptor [3],does not bind or activate the ghrelin receptor at all
same,binding to the ghrelin receptor,ghrelin receptor [3],does not bind
